Data as given in patent US10206902B2, “Mono- or di-substituted indoles as dengue viral replication inhibitors” (priority 2014, dated 2019).

Experiments:
DENV-2 16681 strain = assay: DENV-2 antiviral assay (eGFP-labelled virus in Vero cells); format: cell-based, Dengue virus; details: DENV-2 16681 eGFP, MOI 0.5, 3 days
Protocol: The antiviral activity of all the compounds of the invention was tested against DENV-2 16681 strain which was labeled with enhanced green fluorescent protein (eGPF). The culture medium consists of minimal essential medium supplemented with 2% of heat-inactivated fetal calf serum, 0.04% gentamycin (50 mg/mL) and 2 mM of L-glutamine. Vero cells, obtained from ECACC, were suspended in culture medium and 25 μL was added to 384-well plates (2500 cells/well), which already contain the antiviral compounds. Typically, these plates contain a 4-fold serial dilution of 9 dilution steps of the test compound at 200 times the final concentration in 100% DMSO (200 nL). In addition, each compound concentration is tested in quadruplicate (final concentration range: 25 μM-0.00038 μM). Finally, each plate contains wells which are assigned as virus controls (containing cells and virus in the absence of compound), cell controls (containing cells in the absence of virus and compound) and medium controls (containing medium in the absence of cells, virus and compounds). To the wells assigned as medium control, 25 μL of culture medium was added instead of Vero cells. Once the cells were added to the plates, the plates were incubated for 30 minutes at room temperature to allow the cells to distribute evenly within the wells. Next, the plates were incubated in a fully humidified incubator (37° C., 5% CO2) until the next day. Then, DENV-2 strain 16681, labeled with eGFP, was added at a multiplicity of infection (MOI) of 0.5. Therefore, 15 μL of virus suspension was added to all the wells containing test compound and to the wells assigned as virus control. In parallel, 15 μL of culture medium was added to the medium and cell controls. Next, the plates were incubated for 3 days in a fully humidified incubator (37° C., 5% CO2). At the day of the read out, the eGFP fluorescence was measured using an automated fluorescence microscope at 488 nm (blue laser). Using an in-house LIMS system, inhibition dose response curves for each compound were calculated and the half maximal effective concentration (EC50) was determined. Therefore, the percent inhibition (I) for every test concentration is calculated using the following formula: I=100*(ST−SCC)/(SVC−SCC); ST, SCC and SVC are the amount of eGFP signal in the test compound, cell control and virus control wells, respectively. The EC50 represents the concentration of a compound at which the virus replication is inhibited with 50%, as measured by a 50% reduction of the eGFP fluorescent intensity compared to the virus control. The EC50 is calculated using linear interpolation (Table 1).

in vitro = format: cell-based; details: African green monkey, CC50
Protocol: (§1) In parallel, the toxicity of the compounds was assessed on the same plates. Once the read-out for the eGFP signal was done, 10 μL of resazurin, a cell viability stain, was added to all wells of the 384-well plates. The resazurin assay is based on the reduction of the blue resazurin by NADH, produced by the cells, into the highly fluorescent product, resorufin. The formation of pink fluorescent resorufin is directly related to the number of viable cells in the well. The plates were incubated for an additional 5 hours in a fully humidified incubator (37° C., 5% CO2). Next, the plates were measured on an Infinite reader (Tecan) using an excitation wavelength of 530 nm. The half maximal cytotoxic concentration (CO50) was also determined, defined as the concentration required to reduce the resazurin conversion by 50% compared to that of the cell control wells (Table 1). Finally, the selectivity index (SI) was determined for the compounds, which was calculated as followed: SI=CC50/EC50.

Vero cells = assay: in vitro; format: cell-based; details: African green monkey
Protocol: as §1

[1] = Dengue virus, DENV2, Vero, 72 h

SMILES	EC50 (DENV-2 16681 strain; [1]) [nM]	CC50 (in vitro) [nM]	EC50 (DENV-2 16681 strain) [nM]	CC50 (Vero cells) [nM]
COc1cc(NC(C(=O)c2c[nH]c3cc(F)ccc23)c2ccc(F)cc2OC)cc(OCCO)c1 (racemic) [Compound 1, 1-(6-fluoro-1H-indol-3-yl)-2-(4-fluoro-2-methoxyphenyl)-2-((3-(2-hydroxyethoxy)-5-methoxyphenyl)amino)ethanone]	8	11000	–	–
COc1cc(NC(C(=O)c2c[nH]c3c(C)c(F)ccc23)c2ccc(F)cc2OC)cc(OCCO)c1 (racemic) [Compound 2, 2-(4-fluoro-2-methoxyphenyl)-1-(6-fluoro-7-methyl-1H-indol-3-yl)-2-((3-(2-hydroxyethoxy)-5-methoxyphenyl)amino)ethanone]	5.4	7000	–	–
COc1cc(NC(C(=O)c2c[nH]c3c(C)c(Cl)ccc23)c2ccc(F)cc2OC)cc(OCCO)c1 (racemic) [Compound 3, 1-(6-chloro-7-methyl-1H-indol-3-yl)-2-(4-fluoro-2-methoxyphenyl)-2-((3-(2-hydroxyethoxy)-5-methoxyphenyl)amino)ethanone]	2.1	6300	–	–
COc1cc(NC(C(=O)c2c[nH]c3c(F)c(F)ccc23)c2ccc(F)cc2OC)cc(OCCO)c1 (racemic) [Compound 5, 1-(6,7-difluoro-1H-indol-3-yl)-2-(4-fluoro-2-methoxyphenyl)-2-((3-(2-hydroxyethoxy)-5-methoxyphenyl)amino)ethanone]	8.9	5200	–	–
COc1cc(NC(C(=O)c2c[nH]c3cc(OC)c(F)cc23)c2ccc(F)cc2OC)cc(OCCO)c1 (racemic) [Compound 7, 2-(4-fluoro-2-methoxyphenyl)-1-(5-fluoro-6-methoxy-1H-indol-3-yl)-2-((3-(2-hydroxyethoxy)-5-methoxyphenyl)amino)ethanone]	14	> 9700	–	–
COc1cc(NC(C(=O)c2c[nH]c3c(Cl)c(OC)ccc23)c2ccc(F)cc2OC)cc(OCCO)c1 (racemic) [Compound 8, 1-(7-chloro-6-methoxy-1H-indol-3-yl)-2-(4-fluoro-2-methoxyphenyl)-2-((3-(2-hydroxyethoxy)-5-methoxyphenyl)amino)ethanone]	3.9	6800	–	–
COc1cc(NC(C(=O)c2c[nH]c3cc(F)c(F)cc23)c2ccc(F)cc2OC)cc(OCCO)c1 (racemic) [Compound 10, 1-(5,6-difluoro-1H-indol-3-yl)-2-(4-fluoro-2-methoxy-phenyl)-2-((3-(2-hydroxyethoxy)-5-methoxyphenyl)amino)ethanone]	6.8	9300	–	–
COc1cc(NC(C(=O)c2c[nH]c3c(C)c(OC)ccc23)c2ccc(F)cc2OC)cc(OCCO)c1 (racemic) [Compound 11, 2-(4-fluoro-2-methoxyphenyl)-2-((3-(2-hydroxyethoxy)-5-methoxyphenyl)amino)-1-(6-methoxy-7-methyl-1H-indol-3-yl)ethanone]	2.4	10000	–	–
COc1cc(NC(C(=O)c2c[nH]c3cc(F)ccc23)c2ccc(F)cc2OC)cc(OCCO)c1 (single isomer, unassigned) [Compound 1B, 1-(6-fluoro-1H-indol-3-yl)-2-(4-fluoro-2-methoxyphenyl)-2-((3-(2-hydroxyethoxy)-5-methoxyphenyl)amino)ethanone]	–	12000	660	–
COc1cc(NC(C(=O)c2c[nH]c3c(C)c(F)ccc23)c2ccc(F)cc2OC)cc(OCCO)c1 (single isomer, unassigned) [Compound 2A, 2-(4-fluoro-2-methoxyphenyl)-1-(6-fluoro-7-methyl-1H-indol-3-yl)-2-((3-(2-hydroxyethoxy)-5-methoxyphenyl)amino)ethanone]	–	5400	660	–
COc1cc(NC(C(=O)c2c[nH]c3c(C)c(Cl)ccc23)c2ccc(F)cc2OC)cc(OCCO)c1 (single isomer, unassigned) [Compound 3B, 1-(6-chloro-7-methyl-1H-indol-3-yl)-2-(4-fluoro-2-methoxyphenyl)-2-((3-(2-hydroxyethoxy)-5-methoxyphenyl)amino)ethanone]	–	5800	180	–
COc1cc(NC(C(=O)c2c[nH]c3cc(Cl)ccc23)c2ccc(F)cc2OC)cc(OCCO)c1 (single isomer, unassigned) [Compound 4B, 1-(6-chloro-1H-indol-3-yl)-2-(4-fluoro-2-methoxyphenyl)-2-((3-(2-hydroxyethoxy)-5-methoxyphenyl)amino)ethanone]	–	7700	380	–
COc1cc(NC(C(=O)c2c[nH]c3c(F)c(F)ccc23)c2ccc(F)cc2OC)cc(OCCO)c1 (single isomer, unassigned) [Compound 5A, 1-(6,7-difluoro-1H-indol-3-yl)-2-(4-fluoro-2-methoxyphenyl)-2-((3-(2-hydroxyethoxy)-5-methoxyphenyl)amino)ethanone]	–	7400	440	–
COc1cc(NC(C(=O)c2c[nH]c3cc(OC)c(C)cc23)c2ccc(F)cc2OC)cc(OCCO)c1 (single isomer, unassigned) [Compound 6B, 2-(4-fluoro-2-methoxyphenyl)-2-((3-(2-hydroxyethoxy)-5-methoxyphenyl)amino)-1-(6-methoxy-5-methyl-1H-indol-3-yl)ethanone]	–	–	290	9600
COc1cc(NC(C(=O)c2c[nH]c3cc(OC)c(F)cc23)c2ccc(F)cc2OC)cc(OCCO)c1 (single isomer, unassigned) [Compound 7B, 2-(4-fluoro-2-methoxyphenyl)-1-(5-fluoro-6-methoxy-1H-indol-3-yl)-2-((3-(2-hydroxyethoxy)-5-methoxyphenyl)amino)ethanone]	–	–	540	14000
COc1cc(NC(C(=O)c2c[nH]c3c(Cl)c(OC)ccc23)c2ccc(F)cc2OC)cc(OCCO)c1 (single isomer, unassigned) [Compound 8B, 1-(7-chloro-6-methoxy-1H-indol-3-yl)-2-(4-fluoro-2-methoxyphenyl)-2-((3-(2-hydroxyethoxy)-5-methoxyphenyl)amino)ethanone]	–	9100	150	–
COc1cc(NC(C(=O)c2c[nH]c3c(C)cc(F)cc23)c2ccc(F)cc2OC)cc(OCCO)c1 (single isomer, unassigned) [Compound 9A, 2-(4-fluoro-2-methoxyphenyl)-1-(5-fluoro-7-methyl-1H-indol-3-yl)-2-((3-(2-hydroxyethoxy)-5-methoxyphenyl)amino)ethanone]	–	8800	630	–
COc1cc(NC(C(=O)c2c[nH]c3cc(F)c(F)cc23)c2ccc(F)cc2OC)cc(OCCO)c1 (single isomer, unassigned) [Compound 10A, 1-(5,6-difluoro-1H-indol-3-yl)-2-(4-fluoro-2-methoxy-phenyl)-2-((3-(2-hydroxyethoxy)-5-methoxyphenyl)amino)ethanone]	–	11000	580	–
COc1cc(NC(C(=O)c2c[nH]c3c(C)c(OC)ccc23)c2ccc(F)cc2OC)cc(OCCO)c1 (single isomer, unassigned) [Compound 11B, 2-(4-fluoro-2-methoxyphenyl)-2-((3-(2-hydroxyethoxy)-5-methoxyphenyl)amino)-1-(6-methoxy-7-methyl-1H-indol-3-yl)ethanone]	–	12000	410	–
COc1cc(NC(C(=O)c2c[nH]c3c(F)cc(C)cc23)c2ccc(F)cc2OC)cc(OCCO)c1 (single isomer, unassigned) [Compound 12A, 2-(4-fluoro-2-methoxyphenyl)-1-(7-fluoro-5-methyl-1H-indol-3-yl)-2-((3-(2-hydroxyethoxy)-5-methoxyphenyl)amino)ethanone]	–	9200	930	–
